The results in this text go back to paper PMC10018608 (Signal Transduction and Targeted Therapy, 2023).

SMILES strings stand for the structures.

The target in the first assay is T1, SARS-CoV-2 M^pro (Severe acute respiratory syndrome coronavirus 2, UniProt P0DTD1). Put plainly: biochemical. The following applies: […]; mean ± SD from three experiments.
As usually defined, the IC50 is the concentration that gives 50% inhibition. `O=C(NCc1nccs1)C(=O)[C@@H](Cc1ccccc1)NC(=O)c1ccccc1F` [3a, (R)-N-(3,4-dioxo-1-phenyl-4-((thiazol-2-ylmethyl)amino)butan-2-yl)-2-fluorobenzamide]: 264 ± 4 nM corresponded to half-maximal inhibition (IC50).
On the same count and under the same terms, under `O=C(NCc1nccs1)C(=O)[C@@H](Cc1ccccc1)NC(=O)c1cccc(F)c1` [3b] stands 478 ± 4.8 nM.
Still for that read-out and setting: under `O=C(Cc1ccccc1)N[C@H](Cc1ccccc1)C(=O)C(=O)NCc1nccs1` [3d] stands 949 ± 39.9 nM; under `O=C(COc1ccccc1)N[C@H](Cc1ccccc1)C(=O)C(=O)NCc1nccs1` [3f], 880.8 ± 1.2 nM.
Still for that read-out and setting: under `O=C(CNC(=O)c1ccccc1F)N[C@H](Cc1ccccc1)C(=O)C(=O)NCc1nccs1` [3k] stands 998.3 ± 0.2 nM.
`O=C(CNC(=O)c1cccc(F)c1)N[C@H](Cc1ccccc1)C(=O)C(=O)NCc1nccs1` [3l] registered a concentration for half-maximal inhibition (IC50) of 538.2 ± 4.3 nM.
The same measure, in the same setting: the value for `O=C(CNC(=O)c1ccc(F)cc1)N[C@H](Cc1ccccc1)C(=O)C(=O)NCc1nccs1` [3m] was 348.4 ± 3 nM; that for `O=C(CNC(=O)C1CCC(F)(F)CC1)N[C@H](Cc1ccccc1)C(=O)C(=O)NCc1nccs1` [3n] was 50.3 ± 2.6 nM; that for `O=C(CNC(=O)C1CCCC(F)(F)C1)N[C@H](Cc1ccccc1)C(=O)C(=O)NCc1nccs1` (stereo partly shown) [3o] was 45.8 ± 2.1 nM.
The same measure, in the same setting: the value for `O=C(CNC(=O)C1CCC(F)(F)C1)N[C@H](Cc1ccccc1)C(=O)C(=O)NCc1nccs1` (stereo partly shown) [3p] was 56.5 ± 5.4 nM; that for `O=C(CC1CC(F)(F)C1)NCC(=O)N[C@H](Cc1ccccc1)C(=O)C(=O)NCc1nccs1` [3q] was 23.4 ± 2.2 nM.
The same measure, in the same setting: under `C[C@@H](NC(=O)C1CCCC(F)(F)C1)C(=O)N[C@H](Cc1ccccc1)C(=O)C(=O)NCc1nccs1` (stereo partly shown) [3s] stands 28.3 ± 0.6 nM.
Compound `C[C@@H](NC(=O)C1CCC(F)(F)C1)C(=O)N[C@H](Cc1ccccc1)C(=O)C(=O)NCc1nccs1` (stereo partly shown) [3t] came in with an IC50 of 22.5 ± 0.7 nM.
Still for that read-out and setting: under `C[C@@H](NC(=O)CC1CC(F)(F)C1)C(=O)N[C@H](Cc1ccccc1)C(=O)C(=O)NCc1nccs1` [3u] stands 17.2 ± 0.3 nM.
For the compound `COC[C@@H](NC(=O)C1CCC(F)(F)CC1)C(=O)N[C@H](Cc1ccccc1)C(=O)C(=O)NCc1nccs1` [3v], half-maximal inhibition (IC50) required 18.4 ± 1.3 nM.
Same read-out and setting: the value for `COC[C@@H](NC(=O)CC1CC(F)(F)C1)C(=O)N[C@H](Cc1ccccc1)C(=O)C(=O)NCc1nccs1` [3x] was 10.2 ± 0.1 nM.

Still in this assay, the particulars now being: mean ± SD from three experiments.
Compound `O=C(NCc1nccs1)C(=O)[C@@H](Cc1ccccc1)NC(=O)c1ccccc1` [1a, (R)-N-(3,4-dioxo-1-phenyl-4-((thiazol-2-ylmethyl)amino)butan-2-yl)benzamide] displayed an IC50 of 1300 nM.
The same measure, in the same setting: the value for `O=C(NCc1cccs1)C(=O)[C@@H](Cc1ccccc1)NC(=O)c1ccccc1` [1b] was 77300 ± 2310 nM; that for `O=C(NCc1ccco1)C(=O)[C@@H](Cc1ccccc1)NC(=O)c1ccccc1` [1c] was 37200 ± 510 nM; that for `O=C(NCc1ncco1)C(=O)[C@@H](Cc1ccccc1)NC(=O)c1ccccc1` [1d] was 51500 ± 940 nM.
On the same count and under the same terms, under `O=C(NCc1ccon1)C(=O)[C@@H](Cc1ccccc1)NC(=O)c1ccccc1` [1f] stands 54740 ± 350 nM; under `O=C(NCc1ncon1)C(=O)[C@@H](Cc1ccccc1)NC(=O)c1ccccc1` [1g], 53100 ± 3340 nM; under `O=C(NCc1ncno1)C(=O)[C@@H](Cc1ccccc1)NC(=O)c1ccccc1` [1h], 62300 ± 2070 nM.
`Cc1csc(CNC(=O)C(=O)[C@@H](Cc2ccccc2)NC(=O)c2ccccc2)n1` [1i] registered an IC50 of 40700 ± 1500 nM.
`O=C(NCc1cnc(Cl)s1)C(=O)[C@@H](Cc1ccccc1)NC(=O)c1ccccc1` [1j] showed an IC50 of 95200 ± 5990 nM.
Same read-out and setting: the value for `O=C(NCc1nccs1)C(=O)[C@@H](Cc1ccccc1F)NC(=O)c1ccccc1` [2a] was 3500 ± 230 nM; that for `O=C(NCc1nccs1)C(=O)[C@@H](Cc1cccc(F)c1)NC(=O)c1ccccc1` [2b] was 2550 ± 20 nM.
Same read-out and setting: under `O=C(NCc1nccs1)C(=O)[C@@H](Cc1ccc(F)cc1)NC(=O)c1ccccc1` [2c, (R)-N-(1-(4-fluorophenyl)-3,4-dioxo-4-((thiazol-2-ylmethyl)amino)butan-2-yl)benzamide] stands 1950 ± 290 nM.
Still for that read-out and setting: under `O=C(NCc1nccs1)C(=O)[C@@H](Cc1cc(F)c(F)cc1F)NC(=O)c1ccccc1` [2d] stands 3370 ± 180 nM.
`O=C(NCc1nccs1)C(=O)[C@@H](CC1CCCCC1)NC(=O)c1ccccc1` [2e] registered a half-inhibitory concentration (IC50) of 10500 ± 630 nM.
On the same count and under the same terms, under `O=C(NCc1nccs1)C(=O)[C@@H](Cc1cccc(Cl)c1)NC(=O)c1ccccc1` [2f] stands 1430 ± 150 nM; under `O=C(NCc1nccs1)C(=O)[C@@H](Cc1ccc(Cl)c(Cl)c1)NC(=O)c1ccccc1` [2g], 2030 ± 70 nM; under `O=C(NCc1nccs1)C(=O)[C@@H](Cc1ccccc1)NC(=O)c1ccc(F)cc1` [3c], 1310 ± 100 nM.
Still for that read-out and setting: the value for `O=C(CCc1ccccc1)N[C@H](Cc1ccccc1)C(=O)C(=O)NCc1nccs1` [3e] was 1220 ± 100 nM; that for `O=C(CNC(=O)c1ccccc1)N[C@H](Cc1ccccc1)C(=O)C(=O)NCc1nccs1` [3g] was 1860 ± 40 nM.
Still for that read-out and setting: the value for `O=C(CNC(=O)c1cnccn1)N[C@H](Cc1ccccc1)C(=O)C(=O)NCc1nccs1` [3h] was 3620 ± 270 nM; that for `O=C(CNC(=O)c1ccccn1)N[C@H](Cc1ccccc1)C(=O)C(=O)NCc1nccs1` [3i] was 2240 ± 100 nM.
In turn, `O=C(CNC(=O)c1cccnc1)N[C@H](Cc1ccccc1)C(=O)C(=O)NCc1nccs1` [3j] yielded a concentration for half-maximal inhibition (IC50) of 2230 ± 370 nM.

The same assay, now with this note: read-out: IC50 against SARS-CoV-2 M^pro (FRET); mean ± SD from three experiments.
As to `O=C(NCc1cocn1)C(=O)[C@@H](Cc1ccccc1)NC(=O)c1ccccc1` [1e], the IC50 worked out at 11400 ± 80 nM.

Another assay has as its target T1, SARS-CoV-2 M^pro. Put plainly: Differential scanning fluorimetry (DSF) assay. In kind it is binding. The following applies: mean ± SD (n = 3). On the procedure:
M^pro was mixed with tested compounds and 5 × SYPRO Orange dye (Sigma) avoiding from light. The thermal denaturation spectra were run from 20 °C to 95 °C at a gradient of 1.5 °C/min (CFX96, BioRad). Data were analyzed by Boltzmann model to calculate the melt temperature (Tm). The equation ΔTm = Tm(compound) − Tm(DMSO) was used to calculate the thermal shift (ΔTm). The values are presented as mean ± SD (n = 3).
A general note: DSF heats the sample and reads unfolding from a dye or from intrinsic fluorescence.
As for `O=C(NCc1nccs1)C(=O)[C@@H](Cc1ccccc1)NC(=O)c1ccccc1` [1a, (R)-N-(3,4-dioxo-1-phenyl-4-((thiazol-2-ylmethyl)amino)butan-2-yl)benzamide], the “thermal shift (ΔTm)” value turned out to be 8.45 ± 0.35 °C.
